{"source": "ChEMBL document CHEMBL3885881", "about": "“DrugMatrix”", "species": "Rattus norvegicus", "assay": "DrugMatrix - Regimen: Daily Repeat", "type": "toxicity, organism-based, Sprague-Dawley", "parameters": "regimen Daily Repeat, gender Male, age 6-8 weeks", "conditions": "in vivo, po, route oral GAVAGE, vehicle .5 % CMC; for ALANINE AMINOTRANSFERASE / ALBUMIN / ALKALINE PHOSPHATASE / ASPARTATE AMINOTRANSFERASE / BLOOD UREA NITROGEN / CARBON DIOXIDE / CHLORIDE / CHOLESTEROL / CREATINE PHOSPHOKINASE / CREATININE / GLUCOSE / LACTATE DEHYDROGENASE / LIPASE / PHOSPHORUS / POTASSIUM / SODIUM / TOTAL BILIRUBIN / TOTAL PROTEIN / URIC ACID: tissue Plasma; for ABSOLUTE BASOPHIL / ABSOLUTE EOSINOPHIL / ABSOLUTE LYMPHOCYTE / ABSOLUTE MONOCYTE / ABSOLUTE SEGMENTED NEUTROPHIL / BASOPHIL / EOSINOPHIL / ERYTHROCYTE COUNT / HEMATOCRIT / HEMOGLOBIN / LEUKOCYTE COUNT / LYMPHOCYTE / MEAN CORPUSCULAR HEMOGLOBIN / MEAN CORPUSCULAR HEMOGLOBIN CONCENTRATION / MEAN CORPUSCULAR VOLUME / MONOCYTE / NEUTROPHIL / NUCLEATED RED BLOOD CELLS / PLATELET COUNT: tissue Blood", "key": {"[1]": {"conditions": "10 mg/kg, 72 h, dose level Low, time 3 day"}, "[2]": {"conditions": "10 mg/kg, 120 h, dose level Low, time 5 day"}, "[3]": {"conditions": "2500 mg/kg, 72 h, dose level High, time 3 day"}}, "data": [{"smiles": "CCOC(=O)[C@H](CCc1ccccc1)N[C@@H](C)C(=O)N1Cc2ccccc2C[C@H]1C(=O)O", "values": [{"measurement": "ALANINE AMINOTRANSFERASE", "setting": "[1]", "value": 57.33, "unit": "u/L"}, {"measurement": "ALBUMIN", "setting": "[1]", "value": 4.43, "unit": "G/DL"}, {"measurement": "ALKALINE PHOSPHATASE", "setting": "[1]", "value": 414, "unit": "u/L"}, {"measurement": "ASPARTATE AMINOTRANSFERASE", "setting": "[1]", "value": 111.67, "unit": "u/L"}, {"measurement": "BLOOD UREA NITROGEN", "setting": "[1]", "value": 19.33, "unit": "mg/dL"}, {"measurement": "CARBON DIOXIDE", "setting": "[1]", "value": 27, "unit": "mmol/L"}, {"measurement": "CHLORIDE", "setting": "[1]", "value": 101.33, "unit": "MEQ/L"}, {"measurement": "CHOLESTEROL", "setting": "[1]", "value": 71.67, "unit": "mg/dL"}, {"measurement": "CREATINE PHOSPHOKINASE", "setting": "[1]", "value": 1227, "unit": "u/L"}, {"measurement": "CREATININE", "setting": "[1]", "value": 0.15, "unit": "mg/dL"}, {"measurement": "GLUCOSE", "setting": "[1]", "value": 179.67, "unit": "mg/dL"}, {"measurement": "LACTATE DEHYDROGENASE", "setting": "[1]", "value": 229.67, "unit": "u/L"}, {"measurement": "LIPASE", "setting": "[1]", "value": 10, "unit": "u/L"}, {"measurement": "PHOSPHORUS", "setting": "[1]", "value": 12.13, "unit": "mg/dL"}, {"measurement": "POTASSIUM", "setting": "[1]", "value": 6.89, "unit": "MEQ/L"}, {"measurement": "SODIUM", "setting": "[1]", "value": 142.53, "unit": "MEQ/L"}, {"measurement": "TOTAL BILIRUBIN", "setting": "[1]", "value": 0.23, "unit": "mg/dL"}, {"measurement": "TOTAL PROTEIN", "setting": "[1]", "value": 6.1, "unit": "G/DL"}, {"measurement": "URIC ACID", "setting": "[1]", "value": 1.73, "unit": "mg/dL"}, {"measurement": "ABSOLUTE BASOPHIL", "setting": "[2]", "value": 0, "unit": "CELLS/uL"}, {"measurement": "ABSOLUTE EOSINOPHIL", "setting": "[2]", "value": 0, "unit": "CELLS/uL"}, {"measurement": "ABSOLUTE LYMPHOCYTE", "setting": "[2]", "value": 9146.67, "unit": "CELLS/uL"}, {"measurement": "ABSOLUTE MONOCYTE", "setting": "[2]", "value": 149.33, "unit": "CELLS/uL"}, {"measurement": "ABSOLUTE SEGMENTED NEUTROPHIL", "setting": "[2]", "value": 970.67, "unit": "CELLS/uL"}, {"measurement": "BASOPHIL", "setting": "[2]", "value": 0, "unit": "%"}, {"measurement": "EOSINOPHIL", "setting": "[2]", "value": 0, "unit": "%"}, {"measurement": "ERYTHROCYTE COUNT", "setting": "[2]", "value": 5.39, "unit": "x10E6/uL"}, {"measurement": "HEMATOCRIT", "setting": "[2]", "value": 34.63, "unit": "%"}, {"measurement": "HEMOGLOBIN", "setting": "[2]", "value": 13.67, "unit": "G/DL"}, {"measurement": "LEUKOCYTE COUNT", "setting": "[2]", "value": 10.27, "unit": "x10E3/uL"}, {"measurement": "LYMPHOCYTE", "setting": "[2]", "value": 89.33, "unit": "%"}, {"measurement": "MEAN CORPUSCULAR HEMOGLOBIN", "setting": "[2]", "value": 25.4, "unit": "pg"}, {"measurement": "MEAN CORPUSCULAR HEMOGLOBIN CONCENTRATION", "setting": "[2]", "value": 39.47, "unit": "G/DL"}, {"measurement": "MEAN CORPUSCULAR VOLUME", "setting": "[2]", "value": 64.27, "unit": "fL"}, {"measurement": "MONOCYTE", "setting": "[2]", "value": 1.33, "unit": "%"}, {"measurement": "NEUTROPHIL", "setting": "[2]", "value": 9.33, "unit": "%"}, {"measurement": "NUCLEATED RED BLOOD CELLS", "setting": "[2]", "value": "0 /100WBC"}, {"measurement": "PLATELET COUNT", "setting": "[2]", "value": 1332.67, "unit": "x10E3/uL"}, {"measurement": "ALANINE AMINOTRANSFERASE", "setting": "[2]", "value": 53, "unit": "u/L"}, {"measurement": "ALBUMIN", "setting": "[2]", "value": 4.43, "unit": "G/DL"}, {"measurement": "ALKALINE PHOSPHATASE", "setting": "[2]", "value": 351.67, "unit": "u/L"}, {"measurement": "ASPARTATE AMINOTRANSFERASE", "setting": "[2]", "value": 77, "unit": "u/L"}, {"measurement": "BLOOD UREA NITROGEN", "setting": "[2]", "value": 17.33, "unit": "mg/dL"}, {"measurement": "CARBON DIOXIDE", "setting": "[2]", "value": 31.33, "unit": "mmol/L"}, {"measurement": "CHLORIDE", "setting": "[2]", "value": 101.33, "unit": "MEQ/L"}, {"measurement": "CHOLESTEROL", "setting": "[2]", "value": 100.67, "unit": "mg/dL"}, {"measurement": "CREATINE PHOSPHOKINASE", "setting": "[2]", "value": 265.67, "unit": "u/L"}, {"measurement": "CREATININE", "setting": "[2]", "value": 0.14, "unit": "mg/dL"}, {"measurement": "GLUCOSE", "setting": "[2]", "value": 137.33, "unit": "mg/dL"}, {"measurement": "LACTATE DEHYDROGENASE", "setting": "[2]", "value": 201.67, "unit": "u/L"}, {"measurement": "LIPASE", "setting": "[2]", "value": 10, "unit": "u/L"}, {"measurement": "PHOSPHORUS", "setting": "[2]", "value": 11.8, "unit": "mg/dL"}, {"measurement": "POTASSIUM", "setting": "[2]", "value": 6.69, "unit": "MEQ/L"}, {"measurement": "SODIUM", "setting": "[2]", "value": 143.93, "unit": "MEQ/L"}, {"measurement": "TOTAL BILIRUBIN", "setting": "[2]", "value": 0.23, "unit": "mg/dL"}, {"measurement": "TOTAL PROTEIN", "setting": "[2]", "value": 6.3, "unit": "G/DL"}, {"measurement": "URIC ACID", "setting": "[2]", "value": 1.2, "unit": "mg/dL"}, {"measurement": "ABSOLUTE BASOPHIL", "setting": "[3]", "value": 0, "unit": "CELLS/uL"}, {"measurement": "ABSOLUTE EOSINOPHIL", "setting": "[3]", "value": 56.33, "unit": "CELLS/uL"}, {"measurement": "ABSOLUTE LYMPHOCYTE", "setting": "[3]", "value": 14978, "unit": "CELLS/uL"}, {"measurement": "ABSOLUTE MONOCYTE", "setting": "[3]", "value": 125.33, "unit": "CELLS/uL"}, {"measurement": "ABSOLUTE SEGMENTED NEUTROPHIL", "setting": "[3]", "value": 2373.67, "unit": "CELLS/uL"}, {"measurement": "BASOPHIL", "setting": "[3]", "value": 0, "unit": "%"}, {"measurement": "EOSINOPHIL", "setting": "[3]", "value": 0.33, "unit": "%"}, {"measurement": "ERYTHROCYTE COUNT", "setting": "[3]", "value": 5.38, "unit": "x10E6/uL"}, {"measurement": "HEMATOCRIT", "setting": "[3]", "value": 35.27, "unit": "%"}, {"measurement": "HEMOGLOBIN", "setting": "[3]", "value": 13.67, "unit": "G/DL"}, {"measurement": "LEUKOCYTE COUNT", "setting": "[3]", "value": 17.53, "unit": "x10E3/uL"}, {"measurement": "LYMPHOCYTE", "setting": "[3]", "value": 85.67, "unit": "%"}, {"measurement": "MEAN CORPUSCULAR HEMOGLOBIN", "setting": "[3]", "value": 25.4, "unit": "pg"}, {"measurement": "MEAN CORPUSCULAR HEMOGLOBIN CONCENTRATION", "setting": "[3]", "value": 38.77, "unit": "G/DL"}, {"measurement": "MEAN CORPUSCULAR VOLUME", "setting": "[3]", "value": 65.5, "unit": "fL"}, {"measurement": "MONOCYTE", "setting": "[3]", "value": 0.67, "unit": "%"}, {"measurement": "NEUTROPHIL", "setting": "[3]", "value": 13.33, "unit": "%"}, {"measurement": "NUCLEATED RED BLOOD CELLS", "setting": "[3]", "value": "0 /100WBC"}, {"measurement": "PLATELET COUNT", "setting": "[3]", "value": 1317, "unit": "x10E3/uL"}, {"measurement": "ALANINE AMINOTRANSFERASE", "setting": "[3]", "value": 63.33, "unit": "u/L"}, {"measurement": "ALBUMIN", "setting": "[3]", "value": 4.37, "unit": "G/DL"}, {"measurement": "ALKALINE PHOSPHATASE", "setting": "[3]", "value": 310, "unit": "u/L"}, {"measurement": "ASPARTATE AMINOTRANSFERASE", "setting": "[3]", "value": 80.67, "unit": "u/L"}, {"measurement": "BLOOD UREA NITROGEN", "setting": "[3]", "value": 19.33, "unit": "mg/dL"}, {"measurement": "CARBON DIOXIDE", "setting": "[3]", "value": 28.67, "unit": "mmol/L"}, {"measurement": "CHLORIDE", "setting": "[3]", "value": 98.67, "unit": "MEQ/L"}, {"measurement": "CHOLESTEROL", "setting": "[3]", "value": 107, "unit": "mg/dL"}, {"measurement": "CREATINE PHOSPHOKINASE", "setting": "[3]", "value": 346.67, "unit": "u/L"}, {"measurement": "CREATININE", "setting": "[3]", "value": 0.21, "unit": "mg/dL"}, {"measurement": "GLUCOSE", "setting": "[3]", "value": 155.67, "unit": "mg/dL"}, {"measurement": "LACTATE DEHYDROGENASE", "setting": "[3]", "value": 272.33, "unit": "u/L"}, {"measurement": "LIPASE", "setting": "[3]", "value": 12.33, "unit": "u/L"}, {"measurement": "PHOSPHORUS", "setting": "[3]", "value": 12.8, "unit": "mg/dL"}, {"measurement": "POTASSIUM", "setting": "[3]", "value": 6.92, "unit": "MEQ/L"}, {"measurement": "SODIUM", "setting": "[3]", "value": 140.37, "unit": "MEQ/L"}, {"measurement": "TOTAL BILIRUBIN", "setting": "[3]", "value": 0.17, "unit": "mg/dL"}, {"measurement": "TOTAL PROTEIN", "setting": "[3]", "value": 6.17, "unit": "G/DL"}, {"measurement": "URIC ACID", "setting": "[3]", "value": 1.6, "unit": "mg/dL"}]}]}
